Measurements from paper PMC8613358, “Next generation Glucose-1-phosphate thymidylyltransferase (RmlA) inhibitors: An extended SAR study to direct future design” (Bioorganic & Medicinal Chemistry, 2021).
In brackets after ≈: the same amount, converted by molar mass. Entries after “also recorded” stand apart in the source; their conditions may differ. Counter-ions that a name gives are not always drawn.

Assays:
[1] = target: T1, P. aeruginosa RmlA (Pseudomonas aeruginosa, UniProt Q9HU22); experiment: In vitro RmlA inhibition assay (BIOMOL Green phosphate detection); format: biochemical; settings: for inhibition at 10 µM: 10 μM inhibitor, 30 min, room temperature; for inhibition at 10 µM / IC50: 15 nM recombinant RmlA, 5 μM dTTP, 5 μM G-1-P; for LE (Ligand efficiency): LE = pIC50/number of heavy atoms; for LLE (Lipophilic ligand efficiency): LLE = pIC50 – cLogP; for IC50: ± SD, n = 3; for increase in potency compared to 1b: ratio of IC50 values vs 1b
T1 construct: made in house
T1 sequence (Q9HU22 1-293): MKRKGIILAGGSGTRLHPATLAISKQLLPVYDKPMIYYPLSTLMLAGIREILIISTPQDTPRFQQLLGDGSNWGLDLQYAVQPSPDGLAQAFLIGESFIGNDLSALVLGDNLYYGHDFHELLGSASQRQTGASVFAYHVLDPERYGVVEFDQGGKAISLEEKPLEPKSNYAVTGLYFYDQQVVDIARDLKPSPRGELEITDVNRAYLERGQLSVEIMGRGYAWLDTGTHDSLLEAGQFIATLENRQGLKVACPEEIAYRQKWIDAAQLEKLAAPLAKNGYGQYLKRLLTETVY
Description: Each assay was performed in a 101 μL reaction volume containing 50 mM Tris (pH 7.4), 5 mM MgCl2, 1 mM dithiothreitol, 0.1 mM EDTA (pH 8.0), 0.1 mM EGTA (pH 8.0), 0.05% NP-40, 15 nM recombinant RmlA, 0.8 μg/ml pyrophosphatase, 5 μM dTTP and 5 μM G-1-P. The inhibitor was added to the plate (20 μL) followed by RmlA (30 μL). The reaction was initiated with the addition of dTTP (25 μL), G-1-P (25 μL) and pyrophosphatase (1 μL) as a mixture in one charge (51 μL total) and the assay was allowed to run for 30 min at room temperature. The reaction was quenched by addition of BIOMOL™ Green reagent (100 μL) and was allowed to develop before the absorbance of each well was measured at 620 nm.

[2] = tested on: M.tuberculosis (H37Rv); set-up: method as in PMID 23138692; settings: cited from earlier work

SMILES	melting point [°C]	inhibition at 10 µM [1] [%]	LE (Ligand efficiency) [1]	LLE (Lipophilic ligand efficiency) [1]	IC50 [1] [nM]	activity against P. aeruginosa RmlA (in words) [1]	increase in potency compared to 1b [1] [fold]	MIC100 (M. tuberculosis) [2] [µg/mL]
CNCCCNc1c(N(C)S(=O)(=O)c2ccccc2)c(=O)[nH]c(=O)n1Cc1ccc(Br)cc1 (as salt: TFA) [Compound 1b, N-(1-(4-bromobenzyl)-6-((3-(methylamino)propyl)amino)-2,4-dioxo-1,2,3,4-tetrahydropyrimidin-5-yl)-N-methylbenzenesulfonamide]	294 to 297	–	–	–	–	–	–	–
CNCCNc1c(N(C)S(=O)(=O)c2ccccc2)c(=O)[nH]c(=O)n1Cc1ccc(Br)cc1 (as salt: TFA) [Compound 1c, N-(1-(4-bromobenzyl)-6-((2-(methylamino)ethyl)amino)-2,4-dioxo-1,2,3,4-tetrahydropyrimidin-5-yl)-N-methylbenzenesulfonamide]	283 to 286	–	–	–	–	–	–	–
CN(c1c(N)n(Cc2ccc(Br)cc2)c(=O)[nH]c1=O)S(=O)(=O)c1ccccc1 [Compound 1a]	–	100	0.37	5.20	34 ± 2	–	–	–
CNCCCNc1c(N(C)S(=O)(=O)c2ccccc2)c(=O)[nH]c(=O)n1Cc1ccc(Br)cc1 [Compound 1b, N-(1-(4-bromobenzyl)-6-((3-(methylamino)propyl)amino)-2,4-dioxo-1,2,3,4-tetrahydropyrimidin-5-yl)-N-methylbenzenesulfonamide]	–	100	0.30	4.30	860 ± 96	–	–	–
CNCCNc1c(N(C)S(=O)(=O)c2ccccc2)c(=O)[nH]c(=O)n1Cc1ccc(Br)cc1 [Compound 1c, N-(1-(4-bromobenzyl)-6-((2-(methylamino)ethyl)amino)-2,4-dioxo-1,2,3,4-tetrahydropyrimidin-5-yl)-N-methylbenzenesulfonamide]	–	0	–	–	–	complete loss of activity; also recorded: lost the inhibitory activity	–	–
CN(c1c(NCCCCN)n(Cc2ccc(Br)cc2)c(=O)[nH]c1=O)S(=O)(=O)c1ccccc1 [Compound 1d, N-(6-((4-aminobutyl)amino)-1-(4-bromobenzyl)-2,4-dioxo-1,2,3,4-tetrahydropyrimidin-5-yl)-N-methylbenzenesulfonamide]	311 to 313	100	0.28	4.40	303 ± 26	–	~2.5	–
CN(c1c(NCCCCCN)n(Cc2ccc(Br)cc2)c(=O)[nH]c1=O)S(=O)(=O)c1ccccc1 [Compound 1e, N-(6-((5-aminopentyl)amino)-1-(4-bromobenzyl)-2,4-dioxo-1,2,3,4-tetrahydropyrimidin-5-yl)-N-methylbenzenesulfonamide]	317 to 319	100	0.27	3.90	316 ± 23	–	~2.5	–
CN(c1c(NCCCn2cc(CN)nn2)n(Cc2ccccc2)c(=O)[nH]c1=O)S(=O)(=O)c1ccccc1 [Compound 1f]	295 to 297	100	0.21	4.50	2470 ± 20	–	–	–
CN(c1c(N)n(Cc2ccccc2)c(=O)[nH]c1=O)S(=O)(=O)c1ccccc1 [Compound 8a]	–	–	–	–	–	–	–	100 (≈ 259 µM)
